Among the data in US20250270190A1, “KIT INHIBITORS” (BLUEPRINT MEDICINES CORPORATION, priority 2022, published 2025) are IC50 values, retold here.

Where a name gives a salt, the structure may show the parent alone.

The target of this assay is T1, c-kit autophosphorylation (Phospho c-Kit Tyr721) in HMC 1.1 (exon 11/13) cells, V654A (Homo sapiens, UniProt P10721, V560G/V654A).
T1 construct: endogenous in cells; host or cells: HMC 1.1 (exon 11/13) cells
T1 sequence (P10721 26-976 V560G/V654A): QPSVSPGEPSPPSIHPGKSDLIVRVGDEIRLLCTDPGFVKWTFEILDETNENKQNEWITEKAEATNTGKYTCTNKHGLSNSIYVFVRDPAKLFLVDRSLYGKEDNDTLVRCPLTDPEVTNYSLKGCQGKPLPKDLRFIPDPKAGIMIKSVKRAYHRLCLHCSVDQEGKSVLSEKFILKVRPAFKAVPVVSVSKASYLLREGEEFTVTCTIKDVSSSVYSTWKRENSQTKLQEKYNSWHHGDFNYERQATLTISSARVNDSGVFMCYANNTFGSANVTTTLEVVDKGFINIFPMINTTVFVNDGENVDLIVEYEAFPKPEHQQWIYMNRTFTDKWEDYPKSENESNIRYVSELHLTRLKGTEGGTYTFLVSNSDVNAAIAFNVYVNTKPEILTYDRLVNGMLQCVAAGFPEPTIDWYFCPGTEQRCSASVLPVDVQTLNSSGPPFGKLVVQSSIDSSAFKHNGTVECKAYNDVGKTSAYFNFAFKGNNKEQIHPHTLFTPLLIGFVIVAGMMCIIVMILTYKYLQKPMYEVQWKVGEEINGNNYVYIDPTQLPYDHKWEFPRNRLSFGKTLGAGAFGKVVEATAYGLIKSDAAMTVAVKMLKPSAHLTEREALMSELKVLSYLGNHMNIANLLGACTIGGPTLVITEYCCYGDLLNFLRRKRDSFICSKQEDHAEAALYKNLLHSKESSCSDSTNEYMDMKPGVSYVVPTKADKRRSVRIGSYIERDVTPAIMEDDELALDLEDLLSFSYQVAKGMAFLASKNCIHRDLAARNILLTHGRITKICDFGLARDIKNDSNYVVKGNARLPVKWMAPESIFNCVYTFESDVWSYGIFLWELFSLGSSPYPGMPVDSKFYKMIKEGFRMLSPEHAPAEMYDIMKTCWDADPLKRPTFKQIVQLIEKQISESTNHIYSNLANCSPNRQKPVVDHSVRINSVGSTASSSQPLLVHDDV
In words: pKIT Meso Scale Discovery (MSD) assay, inhibition of autophosphorylation of KIT, HMC1.1_V654A. The assay is classed as cell-based. Particulars: Table 1, cell line not named for Table 1, b1056 names pKIT HMC1.1_V654A, read-out: Code (IC50 for inhibition of autophosphorylation of KIT, pKIT MSD assay). In a few lines:
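HMC1.1 cells were serum-starved for 4 h in serum-free, iron-free, phenol red-free IMDM, then treated with compound in dose-response for 90 min at 37 °C. Staurosporine and DMSO served as controls. Lysates were analysed by MSD electrochemiluminescence immunoassay for phospho-c-Kit Tyr721, and % inhibition of autophosphorylation was derived.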
With `COc1cc(Nc2cc(N)nc(C(F)F)n2)ncc1-c1cnn(CCO)c1` [Compound 59, 2-(4-(6-((6-amino-2-(difluoromethyl)pyrimidin-4-yl)amino)-4-methoxypyridin-3-yl)-1H-pyrazol-1-yl)ethan-1-ol trifluoroacetate], the IC50 (commonly the concentration that inhibits the measured activity by half) was 10 to 40 nM. As for `CNC(=O)c1cnc(Nc2cc(N)nc(CF)n2)cc1NC1CCC1` [Compound 14, 6-((6-amino-2-(fluoromethyl)pyrimidin-4-yl)amino)-4-(cyclobutylamino)-N-methylnicotinamide], the IC50 is < 10 nM. As for `COc1cc(Nc2cc(N)nc(C(F)F)n2)ncc1-c1cnn(C[C@@H]2CCN2)c1` (single isomer, unassigned) [Compound 102, (S)-N4-(5-(1-(azetidin-2-ylmethyl)-1H-pyrazol-4-yl)-4-methoxypyridin-2-yl)-2-(difluoromethyl)pyrimidine-4,6-diamine or (R)-N4-(5-(1-(azetidin-2-ylmethyl)-1H-pyrazol-4-yl)-4-methoxypyridin-2-yl)-2-(difluoromethyl)pyrimidine-4,6-diamine], the IC50 was < 10 nM. The value for `Nc1cc(Nc2cc(NC3CC3)c(C(=O)NCC3CC3)cn2)nc(C(F)F)n1` [Compound 79, 6-((6-amino-2-(difluoromethyl)pyrimidin-4-yl)amino)-4-(cyclopropylamino)-N-(cyclopropylmethyl)nicotinamide] was 10 to 40 nM. Turning to `Cn1cc(-c2cnc(Nc3cc(N)nc(C(F)F)n3)cc2OC(F)F)cn1` [Compound 69, N4-(4-(difluoromethoxy)-5-(1-methyl-1H-pyrazol-4-yl)pyridin-2-yl)-2-(difluoromethyl)pyrimidine-4,6-diamine], the IC50 was 10 to 40 nM. Turning to `COc1cc(Nc2cc(N)nc(C(F)F)n2)ncc1-c1cnn(C2CN(C)C2)c1` [Compound 103, 2-(difluoromethyl)-N4-(4-methoxy-5-(1-(1-methylazetidin-3-yl)-1H-pyrazol-4-yl)pyridin-2-yl)pyrimidine-4,6-diamine], the IC50 was < 10 nM. The result for “6-((6-amino-4-(difluoromethyl)pyridin-2-yl)amino)-4-(((1S,2R)-2-fluorocyclopropyl)amino)-N-methylnicotinamide [Compound 45]” reads 10 to 40 nM. The value for `CNc1cc(Nc2cc(N)nc(C(F)F)n2)ncc1-c1cnn(C)n1` [Compound 18, 2-(difluoromethyl)-N4-(5-(2-methyl-2H-1,2,3-triazol-4-yl)-4-(methylamino)pyridin-2-yl)pyrimidine-4,6-diamine] was 10 to 40 nM; that for `Nc1cc(Nc2cc(OC(F)F)c(-c3cnn(C4CC4)c3)cn2)nc(C(F)F)n1` [Compound 127, N4-(5-(1-cyclopropyl-1H-pyrazol-4-yl)-4-(difluoromethoxy)pyridin-2-yl)-2-(difluoromethyl)pyrimidine-4,6-diamine] was < 10 nM.

Take `COc1cc(Nc2cc(N)nc(C(F)F)n2)ncc1-c1cnn(C(C)(C)CO)c1` [Compound 122, 2-(4-(6-((6-amino-2-(difluoromethyl)pyrimidin-4-yl)amino)-4-methoxypyridin-3-yl)-1H-pyrazol-1-yl)-2-methylpropan-1-ol]: the IC50 was < 10 nM.

Turning to `COCCn1cc(-c2cnc(Nc3cc(N)nc(C(F)F)n3)cc2OC2CC2)cn1` [Compound 146, N4-(4-cyclopropoxy-5-(1-(2-methoxyethyl)-1H-pyrazol-4-yl)pyridin-2-yl)-2-(difluoromethyl)pyrimidine-4,6-diamine], the IC50 is < 10 nM. On to `Cn1cc(-c2cnc(Nc3cc(N)nc(C(F)F)n3)cc2OCC2CCCCO2)cn1` (stereo not drawn) [Compound 172, 2-(difluoromethyl)-N4-(5-(1-methyl-1H-pyrazol-4-yl)-4-((tetrahydro-2H-pyran-2-yl)methoxy)pyridin-2-yl)pyrimidine-4,6-diamine], for which the IC50 is 10 to 40 nM.

Turning to `CCNc1cc(Nc2cc(N)nc(C(F)F)n2)ncc1C(=O)NC1CC2(CNC2)C1` [Compound 149, 6-((6-amino-2-(difluoromethyl)pyrimidin-4-yl)amino)-4-(ethylamino)-N-(2-azaspiro[3.3]heptan-6-yl)nicotinamide], the half-maximal inhibitory concentration (IC50) is > 40 nM. `CCNc1cc(Nc2cc(N)nc(C(F)F)n2)ncc1C(=O)NCc1ccccn1` [Compound 131, 6-((6-amino-2-(difluoromethyl)pyrimidin-4-yl)amino)-4-(ethylamino)-N-(pyridin-2-ylmethyl)nicotinamide]: the IC50 was < 10 nM.

Regarding `CC(C)NC(=O)c1cnc(Nc2cc(N)nc(C(F)F)n2)cc1NC1CC1` [Compound 63, 6-((6-amino-2-(difluoromethyl)pyrimidin-4-yl)amino)-4-(cyclopropylamino)-N-isopropylnicotinamide], the IC50 is < 10 nM. The value for `CNC(C)Cn1cc(-c2cnc(Nc3cc(N)nc(C(F)F)n3)cc2OC(F)F)cn1` (stereo not drawn) [Compound 180, N4-(4-(difluoromethoxy)-5-(1-(2-(methylamino)propyl)-1H-pyrazol-4-yl)pyridin-2-yl)-2-(difluoromethyl)pyrimidine-4,6-diamine] was < 10 nM. In the case of `CCNc1cc(Nc2cc(N)nc([C@@H](C)F)n2)ncc1C(=O)NC` [Compound 10, (R)-6-((6-amino-2-(1-fluoroethyl)pyrimidin-4-yl)amino)-4-(ethylamino)-N-methylnicotinamide], the half-maximal inhibitory concentration (IC50) was > 40 nM. The result for `CCOc1cc(Nc2cc(N)nc(C(F)F)n2)ncc1-c1cnn(CC(C)(C)O)c1` [Compound 152, 1-(4-(6-((6-amino-2-(difluoromethyl)pyrimidin-4-yl)amino)-4-ethoxypyridin-3-yl)-1H-pyrazol-1-yl)-2-methylpropan-2-ol] reads < 10 nM; that for `CC(C)(O)Cn1cc(-c2cnc(Nc3cc(N)nc(C(F)F)n3)cc2OC2CC2)cn1` [Compound 173, 1-(4-(6-((6-amino-2-(difluoromethyl)pyrimidin-4-yl)amino)-4-cyclopropoxypyridin-3-yl)-1H-pyrazol-1-yl)-2-methylpropan-2-ol], < 10 nM. Turning to `COc1cc(Nc2cc(N)nc(C(F)F)n2)ncc1-c1cnn(CCNCC(F)(F)F)c1` [Compound 197, 2-(difluoromethyl)-N4-(4-methoxy-5-(1-(2-((2,2,2-trifluoroethyl)amino)ethyl)-1H-pyrazol-4-yl)pyridin-2-yl)pyrimidine-4,6-diamine], the IC50 was < 10 nM.

For `CCNc1cc(Nc2cc(N)nc(C(F)F)n2)ncc1C(=O)NC12CC(CO)(C1)C2` [Compound 151, 6-((6-amino-2-(difluoromethyl)pyrimidin-4-yl)amino)-4-(ethylamino)-N-(3-(hydroxymethyl)bicyclo[1.1.1]pentan-1-yl)nicotinamide], the IC50 was < 10 nM. The result for `CNC(=O)c1cnc(Nc2cc(N)nc(C(F)F)n2)cc1NC1CCC1` [Compound 37, 6-((6-amino-2-(difluoromethyl)pyrimidin-4-yl)amino)-4-(cyclobutylamino)-N-methylnicotinamide] reads < 10 nM; that for `Nc1cc(Nc2cc(OC3CC3)c(-c3cnn(C[C@H]4CCN4)c3)cn2)nc(C(F)F)n1` (single isomer, unassigned) [Compound 161, (R)-N4-(5-(1-(azetidin-2-ylmethyl)-1H-pyrazol-4-yl)-4-cyclopropoxypyridin-2-yl)-2-(difluoromethyl)pyrimidine-4,6-diamine or (S)-N4-(5-(1-(azetidin-2-ylmethyl)-1H-pyrazol-4-yl)-4-cyclopropoxypyridin-2-yl)-2-(difluoromethyl)pyrimidine-4,6-diamine], < 10 nM. The value for `COc1cc(Nc2cc(N)nc(C(F)F)n2)ncc1-c1cnn([C@H]2CCOC2)c1` (single isomer, unassigned) [Compound 109, (S)-2-(difluoromethyl)-N4-(4-methoxy-5-(1-(tetrahydrofuran-3-yl)-1H-pyrazol-4-yl)pyridin-2-yl)pyrimidine-4,6-diamine or (R)-2-(difluoromethyl)-N4-(4-methoxy-5-(1-(tetrahydrofuran-3-yl)-1H-pyrazol-4-yl)pyridin-2-yl)pyrimidine-4,6-diamine] was < 10 nM.

Regarding `Cn1cc(-c2cnc(Nc3cc(N)nc(C(F)F)n3)cc2OCC2COC2)cn1` [Compound 104, 2-(difluoromethyl)-N4-(5-(1-methyl-1H-pyrazol-4-yl)-4-(oxetan-3-ylmethoxy)pyridin-2-yl)pyrimidine-4,6-diamine], the IC50 is < 10 nM.

Regarding `CNc1cc(Nc2cc(N)nc(C(F)F)n2)ncc1C(=O)NC12CC(CO)(C1)C2` [Compound 121, 6-((6-amino-2-(difluoromethyl)pyrimidin-4-yl)amino)-N-(3-(hydroxymethyl)bicyclo[1.1.1]pentan-1-yl)-4-(methylamino)nicotinamide], the half-maximal inhibitory concentration (IC50) is 10 to 40 nM. The value for `CN(CCn1cc(-c2cnc(Nc3cc(N)nc(C(F)F)n3)cc2OC2CC2)cn1)CC(F)(F)F` [Compound 203, N4-(4-cyclopropoxy-5-(1-(2-(methyl(2,2,2-trifluoroethyl)amino)ethyl)-1H-pyrazol-4-yl)pyridin-2-yl)-2-(difluoromethyl)pyrimidine-4,6-diamine] was < 10 nM; that for `CC(C)Nc1cc(Nc2cc(N)nc(C(F)F)n2)ncc1C(=O)NC1CC1` [Compound 60, 6-((6-amino-2-(difluoromethyl)pyrimidin-4-yl)amino)-N-cyclopropyl-4-(isopropylamino)nicotinamide trifluoroacetate] was < 10 nM. The value for `Cn1cc(-c2cnc(Nc3cc(N)nc(C(F)F)n3)cc2OC2COC2)cn1` [Compound 77, 2-(difluoromethyl)-N4-(5-(1-methyl-1H-pyrazol-4-yl)-4-(oxetan-3-yloxy)pyridin-2-yl)pyrimidine-4,6-diamine] was < 10 nM.

In the case of `C[C@H](CF)Nc1cc(Nc2cc(N)nc(C(F)F)n2)ncc1C(=O)NC1CC1` [Compound 91, (R)-6-((6-amino-2-(difluoromethyl)pyrimidin-4-yl)amino)-N-cyclopropyl-4-((1-fluoropropan-2-yl)amino)nicotinamide], the half-inhibitory concentration (IC50) was < 10 nM.
